Reference: PMC8434392, “Harnessing the Anti-Nociceptive Potential of NK2 and NK3 Ligands in the Design of New Multifunctional μ/δ-Opioid Agonist–Neurokinin Antagonist Peptidomimetics” (Molecules, 2021)

What was measured:
hMOR [1] = test system: hMOR; design: method as in PMID 15094830, PMID 32365707; settings: Figure 1B; read-out: EC50 (CHO-hMOR); cited from earlier work
hMOR [2] = molecular target: hMOR; design: method as in PMID 15094830, PMID 32365707; settings: Figure 1B; read-out: Ki (CHO-hMOR); cited from earlier work
hNK3 = molecular target: hNK3; design: method as in PMID 17728699; settings: Figure 1A; cited from earlier work
NK3 receptor [3] = test system: NK3 receptor; design: method as in PMID 17728699; settings: Figure 1A; cited from earlier work
NK3 receptor [4] = test system: NK3 receptor; design: method as in PMID 17728699; settings: Figure 1A; cited from earlier work; remark: listed apart in the source
human recombinant KOR = molecular target: T1, human recombinant KOR (Homo sapiens, UniProt P41145); assay: Calcium mobilization assay, CHO KOR cells with Gαqi5; assay type: cell-based
T1 construct: expressed in transfected cells; host or cells: CHO cells (gift from Prof. Girolamo Calo', Ferrara University)
T1 sequence (P41145 whole entry): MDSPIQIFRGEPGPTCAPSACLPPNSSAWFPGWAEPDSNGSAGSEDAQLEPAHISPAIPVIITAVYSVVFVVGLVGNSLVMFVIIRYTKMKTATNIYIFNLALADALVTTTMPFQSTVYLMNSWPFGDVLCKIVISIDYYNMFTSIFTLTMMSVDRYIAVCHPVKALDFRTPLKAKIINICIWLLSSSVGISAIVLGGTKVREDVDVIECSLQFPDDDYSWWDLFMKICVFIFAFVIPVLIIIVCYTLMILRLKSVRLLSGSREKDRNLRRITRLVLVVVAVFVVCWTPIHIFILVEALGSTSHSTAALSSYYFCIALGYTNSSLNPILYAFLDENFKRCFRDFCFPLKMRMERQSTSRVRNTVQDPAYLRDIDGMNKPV

human recombinant DOR = molecular target: T2, human recombinant DOR (Homo sapiens, UniProt P41143); design: method as in PMID 23007594; settings: data from reported literature ref 30, cited from earlier work
T2 construct: expressed in transfected cells; host or cells: CHO cells (gift from Prof. Girolamo Calo', Ferrara University)
T2 sequence (P41143 whole entry): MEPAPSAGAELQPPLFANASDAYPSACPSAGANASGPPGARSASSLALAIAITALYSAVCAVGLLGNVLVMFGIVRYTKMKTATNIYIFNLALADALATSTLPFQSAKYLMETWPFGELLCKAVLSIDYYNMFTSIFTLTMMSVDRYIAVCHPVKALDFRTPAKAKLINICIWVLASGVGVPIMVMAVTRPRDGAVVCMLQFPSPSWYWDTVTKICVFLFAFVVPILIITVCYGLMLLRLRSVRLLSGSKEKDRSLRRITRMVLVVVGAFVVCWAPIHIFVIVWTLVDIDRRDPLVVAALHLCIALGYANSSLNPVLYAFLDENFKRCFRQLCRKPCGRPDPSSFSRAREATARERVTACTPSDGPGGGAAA

human recombinant MOR = molecular target: T3, human recombinant MOR (Homo sapiens, UniProt P35372); assay: Calcium mobilization assay, CHO MOR cells with Gαqi5; assay type: cell-based; settings: intrinsic activity: Emax of ligand / Emax of dermorphin
T3 construct: expressed in transfected cells; host or cells: CHO cells (gift from Prof. Girolamo Calo', Ferrara University)
T3 sequence (P35372 whole entry): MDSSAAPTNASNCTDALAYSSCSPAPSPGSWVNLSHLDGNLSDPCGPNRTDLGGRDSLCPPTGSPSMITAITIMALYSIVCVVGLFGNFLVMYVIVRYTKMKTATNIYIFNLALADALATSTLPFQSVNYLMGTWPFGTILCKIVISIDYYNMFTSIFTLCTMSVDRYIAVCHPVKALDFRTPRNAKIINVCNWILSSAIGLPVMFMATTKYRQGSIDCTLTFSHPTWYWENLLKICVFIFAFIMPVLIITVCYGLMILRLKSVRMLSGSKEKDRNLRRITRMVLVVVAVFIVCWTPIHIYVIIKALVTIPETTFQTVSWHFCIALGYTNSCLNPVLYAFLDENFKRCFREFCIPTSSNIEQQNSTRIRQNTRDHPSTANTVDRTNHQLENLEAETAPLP

Cc1cc(O)cc(C)c1C[C@H](N)C(=O)N[C@H](CCCNC(=N)N)C(=O)N[C@@H](Cc1ccccc1)C(=O)N[C@@H](CCCCN)C(N)=O [Dmt-DALDA, H-Dmt-D-Arg-Phe-Lys-NH2]
EC50 (hMOR [1]): 0.51 nM | Ki (hMOR [2]): 0.23 nM

CC[C@H](NC(=O)c1c(O)c(-c2ccccc2)nc2ccccc12)c1ccccc1 [Talnetant]
Ki (hNK3): 2 nM | pA2 (Ca2+ mobilisation) (NK3 receptor [3]): 8.1 | pA2 (IP accumulation) (NK3 receptor [4]): 7.7

C[C@@H](NC(=O)[C@@H](N)Cc1ccc(O)cc1)C(=O)N[C@@H](Cc1ccccc1)C(=O)NCC(=O)N[C@@H](Cc1ccc(O)cc1)C(=O)N1CCC[C@H]1C(=O)N[C@@H](CO)C(N)=O [dermorphin, reference compound]
KOR EC50 ± SEM (nM) (human recombinant KOR; calcium mobilization, CHO KOR Gαqi5, maximum tested concentration 10 µM, crc = concentration-response curve): inactive | KOR α ± SEM (human recombinant KOR; intrinsic activity: Emax of ligand / Emax of dynorphin A): inactive | DOR EC50 ± SEM (nM) (human recombinant DOR; calcium mobilization, chimeric G protein): Inactive ^a | DOR α ± SEM (human recombinant DOR; intrinsic activity): Inactive ^a | MOR α ± SEM (human recombinant MOR): 1.00
